Measured values reported in PMC9585581, “Developing Photoaffinity Probes for Dopamine Receptor D2 to Determine Targets of Parkinson’s Disease Drugs” (ACS Chemical Neuroscience, 2022).

Legend:
human DRD2, long form = biological target: T1, human DRD2, long form (Homo sapiens, UniProt P14416); assay: Intracellular Ca2+ mobilization assay (HEK293T stably expressing DRD2, chimeric G-protein Gqi5, calcium dye, confocal microscopy); type: cell-based; settings: for activity in calcium flux assay (in words): calcium flux bioactivity
T1 construct: expressed in transfected cells; Gqi5 chimera transiently transfected
Description: Intracellular calcium measurement was used to determine G-protein-mediated signaling by DRD2. Because DRD2 is linked to the G-protein subtype Gi, agonist binding inhibits adenyl cyclase activity.[42] To mitigate this effect, we created an HEK293T cell line stably expressing human DRD2, long form, and a chimeric G-protein, Gqi, which alters the DRD2 receptor’s G-protein coupling so that signaling can occur through Gq, resulting in an intracellular calcium flux.[43] The assay is performed by first loading the cell line with a calcium-sensing dye. Binding of the ligand to the receptor results in an influx of calcium to the cytoplasm, which can be characterized in real time by monitoring the increase in dye fluorescence with confocal microscopy.
Figure 2 Intracellular calcium flux assay. HEK293T cell line stably expressing constructs for human DRD2 and a chimeric G-protein is loaded with calcium-sensing dye, […]. After dosing the probe, confocal microscopy is used to determine the calcium flux in the cell by change in dye fluorescence.
A stable HEK293T-derived cell line-expressing DRD2-Strep Tag II fusion was maintained in DMEM supplemented with 10% FBS, 100 U/mL penicillin, and 100 μg/mL streptomycin in a humidified atmosphere at 37 °C in 5% CO2. On day 1, cells were plated at a density of 4 × 10^4 cells/cm^2 in a poly-D-lysine-coated 18-well chambered coverslip (Ibidi). The following day (day 2), cells were transfected with a 10× solution of 3:1 mixture of Gqi5/Optifect Transfection Reagent (Thermo) in unsupplemented DMEM. On day 3, the transfection media was removed and calcium-sensitive dye loading was performed following the protocol of the Fluo-4 Direct Calcium Assay Kit (Invitrogen). 5× drug stimulation solutions were prepared in filter-sterilized HBSS. Once Fluo-4 loading was complete, a time series acquisition at a rate of 1 fps was recorded using a Zeiss LSM 980 with Airyscan 2. Basal fluorescence was recorded for 20 s, followed by the addition of drug solution to a 1× final concentration and acquisition for an additional 40 s. Results in the form of fold fluorescence increase over basal were averaged over 50 cells in ImageJ (NIH), and GraphPad Prism was used for the analysis of data.

DRD2 [1] = biological target: T2, DRD2 (Homo sapiens, UniProt P14416); assay: Western blot analysis of DRD2-probe binding with competition by parent pharmacophore; parameters: expressed in transfected cells; settings: probe 100 nm; membrane fraction enriched via Strep Tag II
Text: To observe the photo-cross-linking of DRD2 at the protein level, we analyzed the colocalization of DRD2 by clicking a fluorophore on the probe and performing Western blots. We further observed the competition with the parent pharmacophore of each probe and the ability of a negative control benzophenone (16) to cross-link to DRD2. Our DRD2-expressing cells or unmodified 293T cells (control group) were suspended in media, treated with the probe at a 100 nm concentration, and photo-cross-linked. The cells were then lysed, and the membrane fraction was separated and enriched for DRD2 by pulldown of the Strep Tag II fusion using magnetic beads. After “clicking” a fluorescent tag to the probe, the membrane fraction was run on an SDS-PAGE gel, transferred to a nitrocellulose membrane, and treated with antibodies against DRD2 and Strep Tag II. […] We also observed many nonspecific binding bands for the probe, which is consistent with our other studies, as well as the observations of the field when it relates to photo-cross-linking groups. […] With this confirmation, we proceeded to proteomic analysis of probe interactions.
Figure 6 Photo-cross-linking of probes 5 and 7 to DRD2 visualized with Western blot. Lanes 1–5 correspond to samples with probe 5 at 100 nm, lanes 6–10 correspond to samples treated with probe 7 at 100 nm, and lanes 11–14 correspond to samples treated with negative control probe 16. Lanes: 1, 6, and 11 are the anti-DRD2 antibody channel, lanes 2, 3, 7, 8, and 12 are fluorescence of the Alexa Fluor 555 clicked to the probes 5, 7, or 16, lanes 4, 9, and 13 are the anti-Strep Tag antibody channel, and lanes 5, 10, and 14 are the overlaid channels for the respective probes.
A stable HEK293T-derived cell line-expressing DRD2-Strep Tag II fusion was maintained in DMEM supplemented with 10% FBS, 100 U/mL penicillin, and 100 μg/mL streptomycin in a humidified atmosphere at 37 °C in 5% CO2. Cells were plated at a density of 4 × 10^4 cells/cm^2 in T300 tissue culture flasks (CellTreat) and allowed to grow to an 80% confluency. At confluency, media was removed and cells were washed once with cold HBSS, followed by incubation for 15 min in cold HBSS with 0.53 mM EDTA. Following incubation, cells were scraped off of the bottom of the flask and the cell suspension was transferred to a 15 mL conical tube and then pelleted at 500g for 5 min. The supernatant was removed, and the cell pellet was resuspended in HBSS followed by centrifugation at 500g for 5 min. […] The supernatant of the cell pellet was removed, and the cells were resuspended in probe solution and incubated at room temperature for 2 min followed by centrifugation at 500g for 5 min. The cell pellet was resuspended in either HBSS or 50 μM competitor solution in HBSS and irradiated with a 365 nm UV lamp (8 W, 2 cm distance) for 30 min at room temperature. The cells were then pelleted at 500g for 5 min, and the supernatant was removed. Membrane fractionation was performed following the MEM-PER Membrane Protein Extraction Kit (Thermo). The solubilized membrane fraction was incubated with hydrophilic streptavidin magnetic beads (NEB) for 1 h at room temperature. The flow-through was removed, and the beads were washed twice with PBS. […]

[2] = cited from earlier work
Dopamine receptor D1 = settings: stated without reference; cited from earlier work
DRD2 [3] = biological target: T2, DRD2; assay: PRESTO-TANGO β-arrestin recruitment assay (HTLA cells transfected with DRD2-TANGO, luciferase readout); type: cell-based; parameters: TEV protease site and fused transcription factor (TANGO module); expressed in transfected cells; host or cells: HTLA cells (gift of G. Barnea), transiently transfected; settings: for activity in β-arrestin recruitment (in words): PRESTO-TANGO
Text: To characterize the response of the β-arrestin effector pathway to our ligands, we used the Parallel-Receptor-ome Expression and Screening via Transcriptional Output TANGO (PRESTO-TANGO) assay developed in the Roth lab.[44],[45] This assay uses luciferase activity to monitor β-arrestin recruitment by DRD2 (Figure 3a).
Figure 3 β-Arrestin recruitment analysis. (a) PRESTO-TANGO assay schematic: a ligand binds a chimeric DRD2 receptor, which then recruits β-arrestin fused with a TEV protease. The protease cuts a site between the receptor and a fused transcription factor, which then transits to the […] to initiate transcription of a luciferase gene. The luciferase activity is subsequently quantified.
HTLA cells were a gift from the laboratory of G. Barnea and were maintained in DMEM supplemented with 10% FBS, 100 U/mL penicillin, 100 μg/mL streptomycin, 2 μg/mL puromycin, 100 μg/mL hygromycin B, and 100 μg/mL G418 in a humidified atmosphere at 37 °C in 5% CO2. On day 1, cells were plated at a density of 1 × 10^5 cells/cm^2 in a black wall, clear-bottom 96-well plate (Nunc). The following day (day 2), cells were transfected with a 10× solution of 3:1 mixture of DRD2-TANGO/Optifect Transfection Reagent (Thermo) in unsupplemented DMEM. On day 3, 1× drug stimulation solutions were prepared in filter-sterilized unsupplemented DMEM. The transfection media was shaken or aspirated from the wells, and drug stimulation solutions were gently added. On day 4, drug solutions were removed from one well every 10 s (to maintain consistency of incubation time) and 50 μL per well of Bright-Glo solution (Promega) diluted 20-fold in HBSS was added. After incubation for 2 min at room temperature, luminescence was counted with an integration time of 10 s in a Spectramax i3x plate reader (Molecular Devices).

T2 sequence (P14416 whole entry, the tested form may be a part): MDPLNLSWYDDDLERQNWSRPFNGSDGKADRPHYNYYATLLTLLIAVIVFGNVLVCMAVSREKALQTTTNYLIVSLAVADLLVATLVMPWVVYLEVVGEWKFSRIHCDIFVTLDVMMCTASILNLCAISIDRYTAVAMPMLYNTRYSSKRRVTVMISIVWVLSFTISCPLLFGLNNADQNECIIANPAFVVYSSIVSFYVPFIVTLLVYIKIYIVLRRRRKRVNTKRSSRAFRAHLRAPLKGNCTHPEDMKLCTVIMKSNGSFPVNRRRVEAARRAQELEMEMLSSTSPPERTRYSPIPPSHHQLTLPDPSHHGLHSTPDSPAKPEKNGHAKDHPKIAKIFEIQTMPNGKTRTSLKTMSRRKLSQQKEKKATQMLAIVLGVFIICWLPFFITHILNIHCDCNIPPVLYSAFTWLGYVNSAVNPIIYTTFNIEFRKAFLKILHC
T1 sequence (P14416 whole entry): as the sequence (P14416 whole entry, the tested form may be a part) above

C#CCCC1(CCC(=O)N(CCC)CCc2cccc3c2CC(=O)N3)N=N1 [Compound 4, 3-(3-(But-3-yn-1-yl)-3H-diazirin-3-yl)-N-(2-(2-oxoindolin-4-yl)ethyl)-N-propylpropanamide]
activity in calcium flux assay (in words) (human DRD2, long form): greatly diminished activity

C#CCCC1(CCC(=O)N[C@H]2CCc3nc(N)sc3C2)N=N1 [Compound 8, (S)-N-(2-Amino-4,5,6,7-tetrahydrobenzo[d]thiazol-6-yl)-3-(3-(but-3-yn-1-yl)-3H-diazirin-3-yl)propanamide]
activity in calcium flux assay (in words) (human DRD2, long form): greatly diminished activity

C#CCOc1ccc(C(=O)c2ccc(CN)cc2)cc1 [Compound 16, reference compound]
photo-cross-linking / colocalization with DRD2 band (Western blot) (DRD2 [1]): did not show colocalization with the DRD2 band

CCCN[C@H]1CCc2nc(N)sc2C1 [pramipexole]
patients experiencing adverse drug reactions [2]: ≤ 74% | binding to dopamine receptor D1 (in words) (Dopamine receptor D1): bound poorly | activity in β-arrestin recruitment (in words) (DRD2 [3]): low nanomolar activity

CCCN(CCC)CCc1cccc2c1CC(=O)N2 [ropinirole, reference compound]
EC50 (human DRD2, long form; Ca assay, HEK293T stably expressing human DRD2 and chimeric G-protein, Hill slope of 1.0): 124 nM | activity in β-arrestin recruitment (in words) (DRD2 [3]): low nanomolar activity | EC50 (DRD2 [3]; PRESTO-TANGO β-arrestin recruitment, luciferase activity, Hill slope of 1.0): 6.14 nM
